Experiments:
pDCs = assay: TLR7/TLR9 stimulation of pDC subsets (R848, CpG): co-stimulatory molecules, CD8 expression, IFN-α and IL-10 ELISA; assay type: cell-based, mouse; conditions: R848 10 μg/ml or CpG 10 μM, 18 hours
Method: (a) Plasmacytoid DCs were isolated by magnetic separation from lymph nodes of Flt3L-treated mice. The surface expression of the costimulation molecules CD80 and CD86 was assessed on CD8α^− CD8β^− pDCs, CD8α^+ CD8β^− pDCs and CD8α^+ CD8β^+ pDCs subtypes after 18 hours of stimulation with R848 (10 μg/ml) or CpG (10 μM). Data are representative of three similar experiments. Shaded histograms represent isotype control antibodies; dashed lines, specific staining of untreated cells; solid black lines, specific staining of CpG treated cells and solid grey lines, specific staining of R848 treated cells. […] Cells were then washed and stained with CD8α and CD8β^− antibodies, APC fluorescence was analyzed by flow cytometry in the CD8α^− CD8β^− pDCs, CD8α^+ CD8β^− pDCs or CD8α^+ CD8β^+ pDCs subpopulations. […] Data are average (mean fluorescence intensity (MFI) at 37° C.)−(MFI at 4° C.)±SEM of three separate experiments. […] The amount of radioactivity related to the number of cells was evaluated in a scintillation counter. […]
The main function of DCs is to prime naïve T cells by presenting antigen and providing additional signals through co-stimulatory molecules and production of cytokines. To address whether the populations of pDCs described herein differ in these functions, we stimulated them with TLR ligands and assessed the expression of co-stimulatory molecules along with the cytokine production. […]

[1] = tested on: naive OVA-specific CD4+ T cells; assay: In vitro co-culture of pDC subsets with naive OVA-specific CD4+ T cells, Foxp3 and IL-10 by flow cytometry; assay type: cell-based, mouse
Method: (a) Flow cytometry of intracellular expression of Foxp3 in CD4^+ T cells cultured with CD8α^− CD8β^− pDCs, CD8α^+ CD8β^− or CD8α^+ CD8β^+ pDCs. Sorted CD8α^− CD8β^−, CD8α^+ CD8β^− or CD8α^+ CD8β^+ pDCs were preincubated 12 hours with either medium or Galectin-3 (10 μg/ml). Cells were then washed and co-cultured with OVA-specific CD4^+ T cells at a 1:10 ratio (pDC:T CD4^+) for 5 days in presence of either OVA323-339 (1 μg/ml) and/or TGF-β (1 ng/ml) as indicated. Cells were subsequently stained with CD3, CD4 and CD25 antibodies fixed, permeabilized and stained with an anti-Foxp3 antibody before flow cytometry analysis. […]
(a) Gene expression of Aldhla1 Aldhla2, and Aldhla3 was assessed by real-time PCR in CD8α^−β^−, CD8α^+β^−, and CD8α^+β^+ pDCs from peripheral lymph nodes or in CD103^− and CD103^+ DCs from mesenteric lymph nodes of Fms-like tyrosine kinase 3-ligand (Flt3-L)-treated mice. […] P-values were calculated with Student's t-test. *P-value <0.05 (CD8α^+β^− pDC and CD8α^+β^+ pDC compared to CD8α^−β^−). ^#P-value <0.05 (CD103^+ cDC compared to CD103^− cDC). […] Cells were subsequently stained with anti-CD11c, anti-mPDCA1, anti-CD8α, and CD8αβ antibodies, and analyzed by flow cytometry to detect RALDH activity. […] Foxp3 expression was analyzed among CD3^+ CD4^+ CD25^+ cells; dot plots are representative of three independent experiments. […]

DCs = assay: In vivo expansion of DCs by Flt3L-expressing tumor cells; parameters: species or system mouse; conditions: Flt3L treatment of BALB/c mice
Method: To test whether an in vivo expansion of the population of DCs affects the expression of CD8α or CD8β at the surface of pDCs, tumor cells expressing Flt3L were transferred into BALB/c mice. Flt3L acts on hematopoietic stem cells and controls their differentiation into DCs, this treatment expands the population of DCs by 15 to 20 fold after 14 days without activating the cells. […] The expression of CD8α and CD8β was assessed simultaneously on pDCs (CD11c^+ BST2^+ cells) and on conventional DCs (cDCs, CD11c^+ BST2^− cells). At the surface of cDCs, only CD8α expression was detected (FIG. 2a). […] Accordingly, with the surface phenotype, CD8α gene expression was detected in CD8α^+β^− pDCs while both CD8α and CD8β genes were overexpressed in the CD8α^+β^+ subset (FIG. 2b). As expected CD8β gene expression was never detected in cDCs (FIG. 2b). […] Our data from B2m knockout mice confirmed the presence of CD8α or CD8β pDC repertoire, similar to the level detected in the wild type mice (FIG. 2c). To further assess the expression of CD8α or CD8β at mRNA level, we performed real time quantitative PCR on the sorted subpopulation of pDCs from B2m knockout mice and confirmed the results obtained in FIG. 2c at the mRNA expression level (FIG. 2d). […]

Q: Which “expression of CD8α and CD8β on pDCs following TLR stimulation” value (pDCs) does the source give for `CCOCc1nc2c(N)nc3ccccc3c2n1CC(C)(C)O` [R848] here?
A: the expression of CD8α and CD8β decreases

Q: How did the “effect of RALDH inhibitor on conversion of naive CD4+ T cells by CD8α+β+ and CD8α+β− pDCs” value ([1]; LE540 1 μM with TGF-β) turn out when `CN1c2cc3c(cc2N=C(c2ccc(C(=O)O)cc2)c2ccc4ccccc4c21)C(C)(C)CCC3(C)C` [LE540] was run?
A: completely blocked the conversion of naïve CD4^+ T cells

Q: How did the “effect of Galectin-3 pre-incubation of pDCs on conversion of naive CD4+ T cells into Foxp3-expressing cells” value ([1]; Galectin-3 10 μg/ml, 12 hours pre-incubation, TGF-β present) turn out when Galectin-3 was run?
A: boost the capacity of pDCs to convert naïve CD4^+ T cells into Foxp3-expressing cells

B1: Flt3L: delivered by tumor cells expressing Flt3L; controls differentiation of hematopoietic stem cells into DCs (protein, UniProt P49771 27-235, looked up)
Fms-related tyrosine kinase 3 …: TQDCSFQHSPISSDFAVKIRELSDYLLQDYPVTVASNLQDEELCGGLWRLVLAQRWMERLKTVAGSKMQGLLERVNTEIHFVTKCAFQPPPSCLRFVQTNISRLLQETSEQLVALKPWITRQNFSRCLELQCQPDSSTLPPPWSPRPLEATAPTAPQPPLLLLLLLPVGLLLLAAAWCLHWQRTRRRTPRPGEQVPPVPSPQDLLLVEH
Q: With B1 as the molecule, how does the “level of expression of CD8α and CD8β on pDCs” value (DCs) read?
A: does not significantly affect
